Assay results: US20070218456A1, “CELLULAR ASSAYS FOR SIGNALING RECEPTORS” (INVITROGEN CORPORATION, priority 2006, published 2007)
Values after ≈ are worked out from the molar mass of the structure shown.

Experiments:
adenylyl cyclase [1] = test: FACS forskolin response of T-REx-GPR23-CRE-bla-CHO-K1 pools; assay type: cell-based, Chinese hamster
From the text: (§1) The transfected and antibiotic selected T-REx™-CRE-bla-CHO-K1 and T-REx™-GPR23-CRE-bla-CHO-K1 clones were sorted for their responsiveness to forskolin. Forskolin activates adenylyl cyclase and results in increased intracellular cAMP concentrations which in turn lead to increased production of beta-lactamase from the CRE response element. Forskolin response of the T-REx™-CRE-bla-CHO-K1 and T-REx™-GPR23-CRE-bla-CHO-K1 pools were determine using FACS. […] In addition, there was an increase in the constitutively active cells in the human GPR23 containing cells as compared to the parental as indicated by the un-stimulated blue levels. The responsive clones were collected at one cell per well in 96 well tissue culture plates then expanded and tested for there responsiveness to LPA.

adenylyl cyclase [2] = test: FACS forskolin response of T-REx-CRE-bla-CHO-K1 pool; assay type: cell-based, Chinese hamster; settings: T-REx-CRE-bla-CHO-K1 selected pool
From the text: as §1

[3] = tested on: T-REx™-G2A-NFAT-bla Freestyle™293F cells; test: T-REx G2A NFAT-bla Freestyle 293F beta-lactamase reporter assay (inducer dose response)
Protocol: (§2) In order to control the levels of G2A expression, G2A was placed under the control of an inducible promoter using Invitrogen's T-REx™ system. To again assess feasibility, pcDNA 5 G2A/TO was transiently transfected into CRE-bla Freestyle™ and NFAT-bla Freestyle™ cell lines stably expressing the T-REx™ Tet repressor plasmid (pcDNA6/TR; e.g., catalog# V1025-20, Invitrogen, Carlsbad, Calif.). The transfected cells were then treated with 10 ug/mL, 1 ug/mL, or 100 ng/mL tetracycline for 24 h to induce G2A expression. […] Stable pools of cells were created in both the TR CRE-bla and TR NFAT-bla Freestyle™293F backgrounds.
(§3) Stimulation Kinetics—Selected pools of both CRE-bla and NFAT-bla T-REx™ G2A Freestyle™ cells were stimulated with tetracycline for 3, 4, 5, or 24 h and loaded for 2 h with 1 μM LiveBLAzer™-FRET B/G substrate.
To improve the balance between tetracycline-induced signaling and cell death by testing shorter induction times, lower tetracycline concentrations and altered culture conditions were utilized to promote cell health. A 16 h tetracycline stimulation time was attempted on the pools from the first sort. Cells were plated at 10,000 cells/well 24 hours prior to assay in DMEM+10% dFBS and incubated at 37° C./5% CO2 until time of assay. The cells were stimulated for 16 hours (e.g., overnight) with a dilution series of the tetracycline. Following stimulation, the cells were loaded for 2 hours at room temperature in the dark with LiveBLAzer™-FRET B/G loading solution containing 1 μM substrate. This assay was done in Poly-D-Lysine coated plates.
Since G2A has no known agonists, doxycycline and tetracycline were compared as inducers of the assay. An antibiotic selected pool of cells were plated at 10,000 cells/well 24 hours prior to assay in DMEM+10% dFBS and incubated at 37° C./5% CO2 until time of assay. The cells were stimulated with a dilution series of each compound for 16 hours at 37° C./5% CO2 and loaded for 2 hours at room temperature in the dark with LiveBLAzer™-FRET B/G loading solution containing 1 μM substrate.
Cell Density/well—The influence of cell-plating density on assay performance was tested to find the density giving the best response and Z′ while maintaining the expected pharmacology. Cells were plated 24 hours prior to the assay at the densities indicated in FIG. 14 in DMEM+10% dFBS and incubated at 37° C./5% CO2 until the time of assay. The cells were stimulated for 16 hours at 37° C./5% CO2 with a dilution series of the doxycycline. After incubation, the cells were loaded for 2 hours at room temperature in the dark with LiveBLAzer™-FRET B/G loading solution containing 1 μM substrate.
DMSO Tolerance—Tests were performed related to assay performance as a function of DMSO concentration to determine the robustness of the assay to the range of DMSO challenge routinely encountered during high-throughput screening. Dose response curves were performed in the presence of 0%, 0.25%, 0.5%, or 1% DMSO. Cells were plated at 10,000 cells/well 24 hours prior to assay in DMEM+10% dFBS and incubated at 37° C./5% CO2 until time of assay. After incubation, DMSO was added to the wells to final concentrations of 0%, 0.25%, 0.5% and 1% DMSO. The cells were stimulated for 16 hours with a dilution series of the doxycycline. Following stimulation, the cells were loaded for 2 hours at room temperature in the dark with LiveBLAzer™-FRET B/G loading solution containing 1 μM substrate.
The substrate loading times were varied to find the time for an optimal assay performance. Cells were plated at 10,000 cells/well 24 hours prior to assay in DMEM+10% dFBS and incubated at 37° C./5% CO2 until time of assay. After incubation, DMSO was added to the wells to final concentration of 0.5%.

[4] = tested on: T-REx™ G2A CRE-bla Freestyle™ 293F cells; settings: selected pool; 24 h tetracycline stimulation
Protocol: as §2, §3

[5] = tested on: T-REx™-GPR23-CRE-bla-CHO-K1 clone H6-E2; test: T-REx-GPR23-CRE-bla-CHO-K1 clone H6-E2 beta-lactamase reporter assay (induction); assay type: cell-based, Chinese hamster; settings: Clone H6-E2; 1 μg/ml tetracycline, 16 hrs
Protocol: Six clones selected for further testing were expanded and retested for their inducible GPR23 specific activity. The clones were plated at 25,000 cells per well in a 96 well black walled clear bottom tissue culture assay plate. The plates were than placed at 37° C. 5% CO2 for 24 hrs to allow the cells to attach to the assay plate. The complete media was then removed from the plate and replaced with assay media (DMEM+0.1% BSA) containing 100 ng/ml pertussis toxin with or without 1 μg/ml tetracycline. The plates were placed at 37° C. 5% CO2 for 16 hrs to allow the induced expression of the GPR23 receptor. The cells were then loaded with LiveBLAzer™-FRET B/G substrate (2 μM) containing solution D for 2 hrs. To determine the optimal cell density for this assay the cells were plated at 2,500, 5,000, 10,000, and 20,000 cells per well in a 384 well black walled clear bottom tissue culture assay plate in complete media (DMEM+10% FBS). The plates were than placed at 37° C. 5% CO2 for 24 hrs to allow the cells to attach to the assay plate. The complete media was then removed from the plate and replaced with assay media (DMEM+0.1% BSA) containing 100 ng/ml pertussis toxin and a four fold dilution series of doxycycline starting at 1 μg/ml. The plates were placed at 37° C./5% CO2 for 16 hrs to allow the induced expression of the GPR23 receptor. The cells were then loaded with LiveBLAzer™-FRET B/G substrate (2 μM) containing solution D for 2 hrs. The cells were plated at 20,000 cells per well in a 384 well black walled clear bottom tissue culture assay plate in complete media (DMEM+10% FBS). The plates were then placed at 37° C. 5% CO2 for 6 hrs to allow the cells to attach to the assay plate. The complete media was then removed from the plate and replaced with assay media (DMEM+0.1% BSA) containing 100 ng/ml pertussis toxin, 0%, 0.25%, 0.5%, or 1.0% DMSO, and a three fold dilution series of doxycycline starting at 1 μg/ml. The plates were placed at 37° C./5% CO2 for 16 hrs to allow the induced expression of the GPR23 receptor. The cells were then loaded with LiveBLAzer™-FRET B/G substrate (2 μM) containing solution D for 2 hrs. The cells were plated at 20,000 cells per well in a 384 well black walled clear bottom tissue culture assay plate in complete media (DMEM+10% FBS). The plates were than placed at 37° C. 5% CO2 for 6 hrs to allow the cells to attach to the assay plate. The complete media was then removed from the plate and replaced with assay media (DMEM+0.1% BSA) containing 100 ng/ml pertussis toxin, 0.5% DMSO, and a three fold dilution series of doxycycline starting at 1 μg/ml. The plates were placed at 37° C. 5% CO2 for 16, 20 or 24 hrs to allow the induced expression of the GPR23 receptor. The cells were then loaded with LiveBLAzer™-FRET B/G substrate (2 μM) containing solution D for 2 hrs. Dose response of T-REx-GPR23-CRE-bla CHO-K1 cells to Doxycycline. T-REx-GPR23-CRE-bla CHO-K1 cells were plated in Growth Media (+) and allowed to attach to the tissue culture plate for 6 hrs. They were then induced for GPR23 expression overnight with doxycycline for 16 hrs in Assay Media. Cells were then loaded with LiveBLAzer™-FRET B/G Substrate (CCF4-AM) for 2 hours. Fluorescence emission values at 460 nm and 530 nm were obtained using a standard florescence plate reader and the Blue/Green Emission Ratios were plotted against the indicated concentrations of doxycycline (FIG. 40).

C=C[C@@]1(C)CC(=O)[C@]2(O)[C@@]3(C)[C@@H](O)CCC(C)(C)[C@@H]3[C@H](O)[C@H](OC(C)=O)[C@@]2(C)O1 [Forskolin]
increase in the "Blue" gate, stimulated verses un-stimulated (adenylyl cyclase [1]; T-REx-GPR23-CRE-bla-CHO-K1 E1): ~20% | increase in the "Blue" gate, stimulated verses un-stimulated (adenylyl cyclase [1]; T-REx-GPR23-CRE-bla-CHO-K1 H6): ~21.1% | increase in the percentage of cells in the "Blue" (responding) gate, stimulated verses un-stimulated (adenylyl cyclase [2]): ~10.7%

CN(C)[C@@H]1C(O)=C(C(N)=O)C(=O)[C@@]2(O)C(O)=C3C(=O)c4c(O)cccc4[C@@](C)(O)[C@H]3C[C@@H]12 [Tetracycline]
EC50 ([3]; Homo sapiens, FreeStyle 293-F, antibiotic selected pool, 10,000 cells/well, 16 h stimulation, 2 h loading): 0.046 µg/mL (≈ 0.104 µM) | RR (Max) ([3]; antibiotic selected pool, 10,000 cells/well, 16 h stimulation): 3.1 | cell death ([3]; selected pool, 24 h tetracycline stimulation): substantial cell death | cell death [4]: substantial cell death | inducible response (induced versus uninduced) [5]: about 9.2 fold
